SMILES strings stand for the structures. Entries after “also recorded” stand apart in the source; their conditions may differ.

One data set relates to rat liver microsomes. Put plainly: Chemical inhibition study of LLDT-8 metabolism with selective CYP inhibitors. The format is in vitro ADME. To be noted: LLDT-8 2 μM, 0.5 and 1 h, residual LLDT-8 by LC-MS/MS. How it is done: The chemical inhibition assay was performed as previously reported (Li et al., [2008]). A 400 μl typical incubation mixture contained 0.2 mg rat liver microsomes (20 mg/ml, Cat. No: LM-DS-02M, Lot. No: BDVH, Research Institute for liver Diseases, Shanghai, China), 2 μM LLDT-8, 5 mM MgCl2, 1 mM NADPH (Cat. No: 10107824001, Lot. No: 20595625, Sigma, USA) and selective inhibitors of each CYP isoforms in a 100 mM phosphate buffer (pH 7.4). The inhibitors used were as follows: quercetin (2 μM) for CYP1A and CYP2C8, 8-methoxypsoralen (2.5 μM) for CYP2A6, sulfaphenazole (10 μM) for CYP2C9, omeprazole (20 μM) for CYP2C19, quinidine (10 μM) for CYP2D6, clomethiazole (50 μM) for CYP2E1, ketoconazole (1 μM) for CYP3A4 and aminobenzotriazole (50 μM, a broad CYP inhibitor) (Tsyrlov et al., [1994]; Li et al., [2008]). After incubation for 0, 0.5, and 1 h, 100 μl supernatant was collected and quenched by the addition of 100 μl of ice-cold acetonitrile. The mixtures were then centrifuged for 10 min at 20,000 × g. An aliquot of the supernatant was analyzed by LC-MS/MS to monitor the residual LLDT-8 without extraction.
With `Nn1nnc2ccccc21` [aminobenzotriazole], the “effect of CYP inhibitor on the metabolism of LLDT-8” value (“effect of CYP inhibitor” for short) is listed as “inhibited”.
On to `Cc1ncsc1CCCl` [clomethiazole], for which the “effect of CYP inhibitor” value is reported as “inhibited; also recorded: seems to completely inhibit”.
Same read-out and setting: as for `CC(=O)N1CCN(c2ccc(OCC3COC(Cn4ccnc4)(c4ccc(Cl)cc4Cl)O3)cc2)CC1` (stereo not drawn) [ketoconazole], the entry is “inhibited”.
As for `COc1ccc2[nH]c([S+]([O-])Cc3ncc(C)c(OC)c3C)nc2c1` (stereo not drawn) [omeprazole], the “effect of CYP inhibitor” value was “inhibited”.
Still for that read-out and setting: for `C=C[C@H]1C[N@@]2CC[C@H]1C[C@@H]2[C@@H](O)c1ccnc2ccc(OC)cc12` [quinidine] the value was “inhibited”.

The subject of the next data set is mice testes. Put plainly: Testicular toxicity comparison between triptolide and LLDT-8 (15 days by gavage, H&E). The format is in vivo, mouse. To be noted: 0.25 mg/kg and 0.5 mg/kg by gavage for 15 days. How it is done: For toxicity experiments, mice (n = 3 for each group) were treated with tritpilide (0.125, 0.25, 0.5mg/kg), LLDT-8 (0.125, 0.25, 0.5mg/kg) consecutively administered by gavage for 15 days. The control group received saline. Mice were sacrificed on the 15th day post-administration and blood, liver, kidney, spleen, testis and epididymis were collected. The main lobe of liver, kidney, spleen and epididymis were fixed in 10% neutral buffered formalin for histological examination, the left testicle was fixed in Davidson’s buffer for 16 hours followed by 10% neutral buffered formalin. Tissue sections were stained with hematoxylin and eosin (H&E). Remaining tissues were stored at -80 °C for RNA and protein extraction.
Supplementary Figure S1 Comparison of testicular toxicity between triptolide(TL) and LLDT-8. Mice (n=3) were weighted before sacrificed on the 15th day post-administration of triptolide, LLDT-8 or saline. The testes were collected and weighted. […] (G-H) Comparison of epididymis weight between triptolide and LLDT-8. Significant difference was determined by one-way Anova, mean ± SD. * p<0.05, *** p<0.001 vs Saline group. # p<0.05, ## p<0.01, ### p<0.001 vs T8 group at the same dosage.
In the case of `CC(C)[C@]12O[C@H]1[C@@H]1O[C@]13[C@]1(O[C@H]1C[C@H]1C4=C(CC[C@@]13C)C(=O)OC4)[C@@H]2O` [triptolide], the “testis morphology (H&E)” value is on record as “induced severe testicular injury”.
